# Source: US20120027741A1 (priority 2009, published 2012)
# Where a name gives a salt, the structure may show the parent alone. Read-outs that look alike come from different tables or passages of the source.
# Experiments:
# Format in all cases: in vivo
# [1] = system: Sphaerotheca fuliginea; assay: Sphaerotheca test (cucumbers)/protective; conditions: 7 days after inoculation
# Procedure: Sphaerotheca Test (Cucumbers)/Protective
# (§1) Solvent: • 24,5 parts by weight of acetone • 24,5 parts by weight of dimethylacetamide
# (§2) Emulsifier: • 1 part by weight of alkylaryl polyglycol ether
# (§3) To produce a suitable preparation of active compound, 1 part by weight of active compound is mixed with the stated amounts of solvent and emulsifier, and the concentrate is diluted with water to the desired concentration.
# To test for protect activity, young plants are sprayed with the preparation of active compound at the stated rate of application. After the spray coating has dried on, the plants are inoculated with to an aqueous spore suspension of Sphaerotheca fuliginea. The plants are then placed in a greenhouse at approximately 23° C. and a relative atmospheric humidity of approximately 70%.
# The test is evaluated 7 days after the inoculation. 0% means an efficacy which corresponds to that of the control, while an efficacy of 100% means that no disease is observed.
# [2] = system: Phytophthora infestans; assay: whole plant or invertebrate; conditions: tomatoes, 3 days after inoculation; for pest or weed control at 12.5 ppm: read-out: Efficacy in % found, Table 2
# [3] = system: Botrytis cinerea; assay: Botrytis test (beans)/protective; conditions: 48 h, 2 days after inoculation, read-out: Efficacy in % found; for pest or weed control at 5 ppm: Table 9, 5 ppm a.i.; for pest or weed control at 10 ppm: Table 9, 10 ppm a.i.
# Procedure: Botrytis Test (Beans)/Protective
# as §1, §2, §3
# To test for protective activity, young plants are sprayed with the preparation of active compound. After the spray coating has dried on, 2 small pieces of agar covered with growth of Botrytis cinerea are placed on each leaf. The inoculated plants are placed in a darkened chamber at 20° C. and a relative atmospheric humidity of 100%.
# 2 days after the inoculation, the size of the lesions on the leaves is evaluated. 0% means an efficacy which corresponds to that of the control, while an efficacy of 100% means that no disease is observed.
# [4] = system: Pythium ultimum; assay: Pythium test (cotton)/seed treatment; conditions: emerged seedlings after 7 days
# Procedure: Pythium Test (Cotton)/Seed Treatment
# The test is performed under greenhouse conditions.
# Cotton seeds, treated with the active compound or compound combinations, solved in N-methyl-2-pyrrolidon and diluted with water to the desired dosages, were sown in 6*6 cm pots containing 4 cm of a 1:1 mix of steamed field soil and sand.
# Perlite was incubated with mycelium fragments of Pythium ultimum. 1 ml of infected perlite was scattered between the treated cotton seeds. Seeds were then covered by light expanded clay aggregate. Pots were incubated in the greenhouse 7 days at 20° C. and 80% relative humidity.
# Assessment consisted of counting of emerged seedlings. 0% means an efficacy which to corresponds to that of the control, while an efficacy of 100% means that all seedlings have emerged.
# [5] = Podosphaera fuliginea, 168 h, Table 7, 1 ppm a.i., read-out: Efficacy in % found
# [6] = Phytophthora infestans, 72 h, read-out: Efficacy in % found, Table 1, 0.4 ppm a.i.
# [7] = Phytophthora infestans, 72 h, read-out: Efficacy in % found, Table 1, 40 ppm a.i.
# [8] = Phytophthora infestans, 72 h, 12.5 ppm a.i.
molecule,measurement,setting,value
Fc1ccc([C@]2(Cn3cncn3)O[C@H]2c2ccccc2Cl)cc1 (racemic) [epoxiconazole],pest or weed control at 1 ppm,[1]; [5],63%
C[C@@]1(c2ccc(Oc3ccccc3)cc2)OC(=O)N(Nc2ccccc2)C1=O (racemic) [famoxadone],pest or weed control at 0.4 ppm,[2]; [6],23%
"Cn1cc(C(=O)Nc2ccccc2-c2cc(F)c(F)c(F)c2)c(C(F)F)n1 [3-(difluoromethyl)-1-methyl-N-(3′,4′,5′-trifluorobiphenyl-2-yl)-1H-pyrazole-4-carboxamide]",pest or weed control at 100 ppm,"[2]; Phytophthora infestans, 72 h, read-out: Efficacy in % found, Table 3, 100 ppm a.i.",35%
same,pest or weed control at 5 ppm,[3],65%
"Cc1cc(C(F)(F)F)nn1CC(=O)N1CCC(c2nc(C(=O)N(C)[C@@H]3CCCc4ccccc43)cs2)CC1 [N-methyl-2-(1-{[5-methyl-3-(trifluoromethyl)-1H-pyrazol-1-yl]acetyl}piperidin-4-yl)-N-[(1R)-1,2,3,4-tetrahydronaphthalen-1-yl]-1,3-thiazole-4-carboxamide]",pest or weed control at 0.1 ppm,"[2]; Phytophthora infestans, 72 h, read-out: Efficacy in % found, Table 1, 0.1 ppm a.i.",48%
CCCCCCCCc1c(CC)nc2ncnn2c1N [ametoctradin],Efficacy in % found,"[2]; Table 1, 1 ppm a.i.",22%
CO/C=C(/C(=O)OC)c1ccccc1Oc1cc(Oc2ccccc2C#N)ncn1 [azoxystrobin],Efficacy in % found,"[2]; Table 1, 0.4 ppm a.i.",30%
same,Efficacy in % found,"[1]; Table 8, 1 ppm a.i.",30%
COC(=O)[C@@H](C)N(C(=O)Cc1ccccc1)c1c(C)cccc1C [benalaxyl-M],Efficacy in % found,"[2]; Table 5, 1 ppm a.i.",28%
same,Efficacy in % found,"[4]; Table 11, 1 g a.i./dt",4%
CC(C)[C@H](NC(=O)O)C(=O)N[C@H](C)c1nc2ccc(F)cc2s1 [benthiavalicarb],Efficacy in % found,"[2]; Table 1, 0.1 ppm a.i.",48%
"Cn1cc(C(=O)Nc2ccc(F)cc2-c2ccc(Cl)c(Cl)c2)c(C(F)F)n1 [bixafen, N-(3′,4′-dichloro-5-fluorobiphenyl-2-yl)-3-(difluoromethyl)-1-methyl-1H-pyrazole-4-carboxamide]",pest or weed control at 40 ppm,[2]; [7],18%
same,pest or weed control at 1 ppm,"[1]; Podosphaera fuliginea, 168 h, Table 8, 1 ppm a.i., read-out: Efficacy in % found",0%
O=C(Nc1ccccc1-c1ccc(Cl)cc1)c1cccnc1Cl [boscalid],pest or weed control at 40 ppm,[2]; [7],26%
same,pest or weed control at 10 ppm,[3],73%
N#Cc1c(Cl)c(Cl)c(Cl)c(C#N)c1Cl [chlorothalonil],pest or weed control at 12.5 ppm,[2]; [8],20%
[Cu+2].[OH-].[OH-] [copper hydroxide],Efficacy in % found,"[2]; Table 2, 6.25 ppm a.i.",73%
[Cl-].[Cu+2].[Cu+2].[OH-].[OH-].[OH-] [copper oxychloride],Efficacy in % found,"[2]; Table 2, 6.25 ppm a.i.",60%
Cc1ccc(-c2c(Cl)nc(C#N)n2S(=O)(=O)N(C)C)cc1 [cyazofamid],pest or weed control at 0.4 ppm,[2]; [6],49%
CCNC(=O)NC(=O)/C(C#N)=N/OC [cymoxanil],pest or weed control at 1.25 ppm,"[2]; Phytophthora infestans, 72 h, read-out: Efficacy in % found, Table 6, 1.25 ppm a.i.",29%
COc1ccc(C(=CC(=O)N2CCOCC2)c2ccc(Cl)cc2)cc1OC [dimethomorph],pest or weed control at 0.4 ppm,[2]; [6],41%
CSC1=N[C@@](C)(c2ccccc2)C(=O)N1Nc1ccccc1 [fenamidone],pest or weed control at 0.4 ppm,[2]; [6],57%
same,Efficacy in % found,"[4]; Table 11, 1 g a.i./dt",4%
CC1(C(=O)Nc2ccc(O)c(Cl)c2Cl)CCCCC1 [fenhexamid],pest or weed control at 5 ppm,[3],81%
O=[N+]([O-])c1cc(C(F)(F)F)c(Cl)c([N+](=O)[O-])c1Nc1ncc(C(F)(F)F)cc1Cl [fluazinam],pest or weed control at 2 ppm,"[2]; Phytophthora infestans, 72 h, read-out: Efficacy in % found, Table 1, 2 ppm a.i.",38%
O=C(NCc1ncc(C(F)(F)F)cc1Cl)c1c(Cl)cccc1Cl [fluopicolide],Efficacy in % found,"[2]; Table 1, 0.4 ppm a.i.",18%
same,Efficacy in % found,"[4]; Table 11, 10 g a.i./dt",26%
"O=C(NCCc1ncc(C(F)(F)F)cc1Cl)c1ccccc1C(F)(F)F [fluopyram, N-{2-[3-chloro-5-(trifluoromethyl)pyridin-2-yl]ethyl}-2-(trifluoromethyl)benzamide]",pest or weed control at 25 ppm,"[2]; Phytophthora infestans, 72 h, read-out: Efficacy in % found, Table 3, 25 ppm a.i.",9%
same,pest or weed control at 10 ppm,[3],70%
CO/N=C(/C1=NOCCO1)c1ccccc1Oc1ncnc(Oc2ccccc2Cl)c1F [fluoxastrobin],pest or weed control at 0.4 ppm,[2]; [6],36%
O=c1c2cc(F)ccc2nc(-n2cncn2)n1-c1ccc(Cl)cc1Cl [fluquinconazole],pest or weed control at 0.5 ppm,"[1]; Podosphaera fuliginea, 168 h, Table 7, 0.5 ppm a.i., read-out: Efficacy in % found",63%
O=C1c2ccccc2C(=O)N1SC(Cl)(Cl)Cl [folpet],pest or weed control at 50 ppm,"[3]; Table 10, 50 ppm a.i.",79%
CCO[PH](=O)O [fosetyl-Al],Efficacy in % found,"[2]; Table 2, 12.5 ppm a.i.",0%
CC(C)NC(=O)N1CC(=O)N(c2cc(Cl)cc(Cl)c2)C1=O [iprodione],pest or weed control at 50 ppm,"[3]; Table 9, 50 ppm a.i.",70%
Cc1ccc(C(C)NC(=O)[C@@H](NC(=O)OC(C)C)C(C)C)cc1 (some centres unmarked) [iprovalicarb],Efficacy in % found,"[2]; Table 1, 0.4 ppm a.i.",0%
CC(C)C1C2CCC1c1c(NC(=O)c3cn(C)nc3C(F)F)cccc12 (centres unmarked) [isopyrazam],Efficacy in % found,"[2]; Table 1, 40 ppm a.i.",20%
C#CCOc1ccc(CCNC(=O)C(OCC#C)c2ccc(Cl)cc2)cc1OC (centres unmarked) [mandipropamid],Efficacy in % found,"[2]; Table 1, 0.4 ppm a.i.",84%
same,Efficacy in % found,"[4]; Table 11, 10 g a.i./dt",0%
COCC(=O)N(c1c(C)cccc1C)[C@H](C)C(=O)OC [mefenoxam],Efficacy in % found,"[4]; Table 11, 0.1 g a.i./dt",48%
Cc1nn(C)c(F)c1C(=O)Nc1ccccc1C(C)CC(C)C (centres unmarked) [penflufen],Efficacy in % found,"[2]; Table 1, 40 ppm a.i.",16%
CC(C)CC(C)c1sccc1NC(=O)c1cn(C)nc1C(F)(F)F (centres unmarked) [penthiopyrad],pest or weed control at 40 ppm,[2]; [7],31%
OP(O)O [phosphorous acid],Efficacy in % found,"[2]; Table 2, 12.5 ppm a.i.",0%
CCCN(CCOc1c(Cl)cc(Cl)cc1Cl)C(=O)n1ccnc1 [prochloraz],pest or weed control at 100 ppm,"[2]; Phytophthora infestans, 72 h, read-out: Efficacy in % found, Table 4, 100 ppm a.i.",26%
CCCOC(=O)NCCCN(C)C [propamocarb-HCl],pest or weed control at 12.5 ppm,[2]; [8],20%
CCCC1COC(Cn2cncn2)(c2ccc(Cl)cc2Cl)O1 (centres unmarked) [propiconazole],pest or weed control at 1 ppm,[1]; [5],13%
OC(Cc1ccccc1Cl)(Cn1nc[nH]c1=S)C1(Cl)CC1 (centres unmarked) [prothioconazole],pest or weed control at 1 ppm,[1]; [5],50%
COC(=O)N(OC)c1ccccc1COc1ccn(-c2ccc(Cl)cc2)n1 [pyraclostrobin],pest or weed control at 0.4 ppm,[2]; [6],28%
Cc1cc(C)nc(Nc2ccccc2)n1 [pyrimethanil],pest or weed control at 25 ppm,"[3]; Table 9, 25 ppm a.i.",30%
Cn1cc(C(=O)Nc2ccccc2C2CC2C2CC2)c(C(F)F)n1 (centres unmarked) [sedaxane],Efficacy in % found,"[2]; Table 1, 40 ppm a.i.",37%
CC(C)(C)C(O)(CCc1ccc(Cl)cc1)Cn1cncn1 (centres unmarked) [tebuconazole],pest or weed control at 2 ppm,"[1]; Podosphaera fuliginea, 168 h, Table 7, 2 ppm a.i., read-out: Efficacy in % found",13%
CC(C)(C)C(O)C(Oc1ccc(Cl)cc1)n1cncn1 (centres unmarked) [triadimenol],pest or weed control at 1 ppm,[1]; [5],38%
CON=C(C(=O)OC)c1ccccc1CON=C(C)c1cccc(C(F)(F)F)c1 [trifloxystrobin],pest or weed control at 2.5 ppm,"[1]; Podosphaera fuliginea, 168 h, Table 7, 2.5 ppm a.i., read-out: Efficacy in % found",58%
CCC(C)(NC(=O)c1cc(Cl)c(C)c(Cl)c1)C(=O)CCl (centres unmarked) [zoxamide],pest or weed control at 0.4 ppm,[2]; [6],16%
mancozeb,Efficacy in % found,"[2]; Table 1, 20 ppm a.i.",33%
metiram,Efficacy in % found,"[2]; Table 4, 100 ppm a.i.",26%
propineb,Efficacy in % found,"[2]; Table 2, 6.25 ppm a.i.",63%
